Results as given in ChEMBL document CHEMBL1201861, “Genomics of Drug Sensitity in Cancer screening data, Wellcome Trust Sanger Institute”.

Legend:
Assay in all cases: cells
[1] = test system: SCC-25; type: functional, cell-based, Homo sapiens; conditions: Homo sapiens, SCC-25;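 note: growth inhibition of SCC-25 cells, measured with a cell viability assay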
Description: SANGER: Inhibition of human SCC-25 cell growth in a cell viability assay.

[2] = test system: FTC-133; type: functional, cell-based, Homo sapiens; conditions: Homo sapiens, FTC-133
[3] = test system: COLO-678; type: functional, cell-based, Homo sapiens; conditions: Homo sapiens, COLO-678
Description: SANGER: Inhibition of human COLO-678 cell growth in a cell viability assay.

[4] = test system: BHT-101; type: functional, cell-based, Homo sapiens; conditions: Homo sapiens, BHT-101
Description: SANGER: Inhibition of human BHT-101 cell growth in a cell viability assay.

[5] = test system: RPMI-7951; type: functional, cell-based, Homo sapiens; conditions: Homo sapiens, RPMI-7951
Description: SANGER: Inhibition of human RPMI-7951 cell growth in a cell viability assay.

[6] = test system: TE-10; type: functional, cell-based, Homo sapiens; conditions: Homo sapiens, TE-10;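 note: growth inhibition of TE-10 cells, measured by a cell viability assay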
Description: SANGER: Inhibition of human TE-10 cell growth in a cell viability assay.

[7] = test system: CAL-85-1; type: functional, cell-based; conditions: Homo sapiens;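 note: growth inhibition of human CAL-85-1 cells, read out with a cell viability assay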
Description: SANGER: Inhibition of human CAL-85-1 cell growth in a cell viability assay.

[8] = test system: Detroit 562; type: functional, cell-based, Homo sapiens; conditions: Homo sapiens, Detroit 562;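 note: growth inhibition of human Detroit 562 cells, read out by a cell viability assay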
Description: SANGER: Inhibition of human Detroit562 cell growth in a cell viability assay.

[9] = test system: MKN-28; type: functional, cell-based, Homo sapiens; conditions: Homo sapiens, MKN-28;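 note: cell viability assay read-out, IC50 reflects suppression of growth of human MKN-28 cells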
Description: SANGER: Inhibition of human MKN28 cell growth in a cell viability assay.

[10] = test system: RT-112; type: functional, cell-based, Homo sapiens; conditions: Homo sapiens, RT-112
Description: SANGER: Inhibition of human RT-112 cell growth in a cell viability assay.

[11] = test system: NCI-H747; type: functional, cell-based; conditions: Homo sapiens;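 note: growth inhibition of human NCI-H747 cells, read out by a cell viability assay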
Description: SANGER: Inhibition of human NCI-H747 cell growth in a cell viability assay.

[12] = test system: T47D; type: functional, cell-based, Homo sapiens; conditions: Homo sapiens, T47D;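 note: growth inhibition of human T47D cells, measured with a cell viability assay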
Description: SANGER: Inhibition of human T47D cell growth in a cell viability assay.

[13] = test system: P12-Ichikawa; type: functional, cell-based; conditions: Homo sapiens
[14] = test system: MKN-45; type: functional, cell-based, Homo sapiens; conditions: Homo sapiens, MKN-45;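 note: growth inhibition of human MKN-45 cells, measured with a cell viability assay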
Description: SANGER: Inhibition of human MKN45 cell growth in a cell viability assay.

[15] = test system: SW780; type: functional, cell-based, Homo sapiens; conditions: Homo sapiens, SW780;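 note: growth inhibition of the cells, read out with a cell viability assay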
Description: SANGER: Inhibition of human SW780 cell growth in a cell viability assay.

[16] = test system: LNCaP-Clone-FGC; type: functional, cell-based, Homo sapiens; conditions: Homo sapiens, LNCaP-Clone-FGC
Description: SANGER: Inhibition of human LNCaP-Clone-FGC cell growth in a cell viability assay.

[17] = test system: MDA-MB-453; type: functional, cell-based, Homo sapiens; conditions: Homo sapiens, MDA-MB-453
Description: SANGER: Inhibition of human MDA-MB-453 cell growth in a cell viability assay.

[18] = test system: KS-1; type: functional, cell-based, Homo sapiens; conditions: Homo sapiens, KS-1;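 note: growth inhibition of KS-1 cells, read out with a cell viability assay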
Description: SANGER: Inhibition of human KS-1 cell growth in a cell viability assay.

[19] = test system: PC-14; type: functional, cell-based, Homo sapiens; conditions: Homo sapiens, PC-14;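 note: cell viability assay measuring inhibition of PC-14 cell growth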
Description: SANGER: Inhibition of human PC-14 cell growth in a cell viability assay.

[20] = test system: K5; type: functional, cell-based, Homo sapiens; conditions: Homo sapiens, K5
Description: SANGER: Inhibition of human K5 cell growth in a cell viability assay.

[21] = test system: KG-1; type: functional, cell-based; conditions: Homo sapiens;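 note: growth inhibition of KG-1 cells, read out by a cell viability assay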
Description: SANGER: Inhibition of human KG-1 cell growth in a cell viability assay.

[22] = test system: SAS; type: functional, cell-based, Homo sapiens; conditions: Homo sapiens, SAS;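 note: growth inhibition of SAS cells, read out with a cell viability assay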
Description: SANGER: Inhibition of human SAS cell growth in a cell viability assay.

[23] = test system: NCI-H2170; type: functional, cell-based, Homo sapiens; conditions: Homo sapiens, NCI-H2170;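 note: cell viability assay measuring growth inhibition of human NCI-H2170 cancer cells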
Description: SANGER: Inhibition of human NCI-H2170 cell growth in a cell viability assay.

[24] = test system: ES5; type: functional, cell-based, Homo sapiens; conditions: Homo sapiens, ES5;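 note: growth inhibition of human ES5 cells, read out by a cell viability assay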
Description: SANGER: Inhibition of human ES5 cell growth in a cell viability assay.

[25] = test system: SF-268; type: functional, cell-based, Homo sapiens; conditions: Homo sapiens, SF-268;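 note: growth inhibition of SF-268 cells determined with a cell viability assay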
Description: SANGER: Inhibition of human SF268 cell growth in a cell viability assay.

[26] = test system: ES3; type: functional, cell-based, Homo sapiens; conditions: Homo sapiens, ES3;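 note: growth inhibition of ES3 cells, read out with a cell viability assay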
Description: SANGER: Inhibition of human ES3 cell growth in a cell viability assay.

[27] = test system: SCC-9; type: functional, cell-based, Homo sapiens; conditions: Homo sapiens, SCC-9;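 note: Read-out is a cell viability assay, with values giving inhibition of cell growth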
Description: SANGER: Inhibition of human SCC-9 cell growth in a cell viability assay.

[28] = test system: KGN; type: functional, cell-based, Homo sapiens; conditions: Homo sapiens, KGN;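 note: growth inhibition of KGN cells, read out with a cell viability assay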
Description: SANGER: Inhibition of human KGN cell growth in a cell viability assay.

[29] = test system: NCI-H510A; type: functional, cell-based; conditions: Homo sapiens;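 note: growth inhibition of NCI-H510A cells, read out with a cell viability assay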
Description: SANGER: Inhibition of human NCI-H510A cell growth in a cell viability assay.

[30] = test system: KOSC-2; type: functional, cell-based, Homo sapiens; conditions: Homo sapiens, KOSC-2;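 note: growth inhibition of KOSC-2 cells, read out by a cell viability assay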
Description: SANGER: Inhibition of human KOSC-2 cell growth in a cell viability assay.

[31] = test system: BHY; type: functional, cell-based, Homo sapiens; conditions: Homo sapiens, BHY;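 note: cell growth inhibition read out by a viability assay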
Description: SANGER: Inhibition of human BHY cell growth in a cell viability assay.

[32] = test system: LS-123; type: functional, cell-based, Homo sapiens; conditions: Homo sapiens, LS-123
Description: SANGER: Inhibition of human LS-123 cell growth in a cell viability assay.

[33] = test system: JAR; type: functional, cell-based, Homo sapiens; conditions: Homo sapiens, JAR;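 note: growth inhibition of human JAR cells determined with a cell viability assay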
Description: SANGER: Inhibition of human JAR cell growth in a cell viability assay.

[34] = test system: CAS-1; type: functional, cell-based, Homo sapiens; conditions: Homo sapiens, CAS-1;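 note: growth inhibition of CAS-1 cells, measured with a cell viability assay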
Description: SANGER: Inhibition of human CAS-1 cell growth in a cell viability assay.

[35] = test system: KY821; type: functional, cell-based; conditions: Homo sapiens;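 note: growth inhibition of human KY821 cells, read out by a cell viability assay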
Description: SANGER: Inhibition of human KY821 cell growth in a cell viability assay.

[36] = test system: VMRC-RCZ; type: functional, cell-based; conditions: Homo sapiens;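 note: growth inhibition measured with a cell viability assay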
Description: SANGER: Inhibition of human VMRC-RCZ cell growth in a cell viability assay.

[37] = test system: NOMO-1; type: functional, cell-based; conditions: Homo sapiens;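 note: growth inhibition of human NOMO-1 cells measured by a cell viability assay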
Description: SANGER: Inhibition of human NOMO-1 cell growth in a cell viability assay.

[38] = test system: Capan-2; type: functional, cell-based, Homo sapiens; conditions: Homo sapiens, Capan-2;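 note: Capan-2 cell growth inhibition, read out with a viability assay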
Description: SANGER: Inhibition of human Capan-2 cell growth in a cell viability assay.

[39] = test system: RXF 393; type: functional, cell-based; conditions: Homo sapiens;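 note: growth inhibition of human RXF 393 cells, read out with a cell viability assay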
Description: SANGER: Inhibition of human RXF393 cell growth in a cell viability assay.

[40] = test system: KE-37; type: functional, cell-based; conditions: Homo sapiens;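 note: growth inhibition of KE-37 cells, read out with a cell viability assay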
Description: SANGER: Inhibition of human KE-37 cell growth in a cell viability assay.

[41] = test system: GAK; type: functional, cell-based, Homo sapiens; conditions: Homo sapiens, GAK;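 note: cell growth inhibition read out by a cell viability assay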
Description: SANGER: Inhibition of human GAK cell growth in a cell viability assay.

[42] = test system: A 172; type: functional, cell-based, Homo sapiens; conditions: Homo sapiens, A 172;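 note: growth inhibition of A172 cells, measured with a cell viability readout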
Description: SANGER: Inhibition of human A172 cell growth in a cell viability assay.

[43] = test system: MDA-MB-361; type: functional, cell-based, Homo sapiens; conditions: Homo sapiens, MDA-MB-361
[44] = test system: NKM-1; type: functional, cell-based; conditions: Homo sapiens;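 note: growth inhibition of NKM-1 cells, read out with a cell viability assay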
Description: SANGER: Inhibition of human NKM-1 cell growth in a cell viability assay.

[45] = test system: RH-1; type: functional, cell-based, Homo sapiens; conditions: Homo sapiens, RH-1;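 note: growth inhibition of human RH-1 cells, read out with a cell viability assay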
Description: SANGER: Inhibition of human RH-1 cell growth in a cell viability assay.

[46] = test system: MZ7-mel; type: functional, cell-based, Homo sapiens; conditions: Homo sapiens, MZ7-mel;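 note: growth inhibition of human MZ7-mel cells, measured by a cell viability assay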
Description: SANGER: Inhibition of human MZ7-mel cell growth in a cell viability assay.

[47] = test system: KALS-1; type: functional, cell-based, Homo sapiens; conditions: Homo sapiens, KALS-1;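 note: growth inhibition of KALS-1 cells, determined with a cell viability assay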
Description: SANGER: Inhibition of human KALS-1 cell growth in a cell viability assay.

[48] = test system: RKO; type: functional, cell-based, Homo sapiens; conditions: Homo sapiens, RKO;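 note: growth inhibition of human RKO cells, read out with a cell viability assay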
Description: SANGER: Inhibition of human RKO cell growth in a cell viability assay.

[49] = test system: AM-38; type: functional, cell-based, Homo sapiens; conditions: Homo sapiens, AM-38;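 note: growth inhibition of AM-38 cells of human origin, read out by a cell viability assay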
Description: SANGER: Inhibition of human AM-38 cell growth in a cell viability assay.

[50] = test system: ONS-76; type: functional, cell-based, Homo sapiens; conditions: Homo sapiens, ONS-76;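 note: growth inhibition of human ONS-76 cells, read out with a cell viability assay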
Description: SANGER: Inhibition of human ONS-76 cell growth in a cell viability assay.

[51] = test system: LB771-HNC; type: functional, cell-based, Homo sapiens; conditions: Homo sapiens, LB771-HNC;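 note: growth inhibition of LB771-HNC human cells, read out with a cell viability assay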
Description: SANGER: Inhibition of human LB771-HNC cell growth in a cell viability assay.

[52] = test system: NCI-H23; type: functional, cell-based, Homo sapiens; conditions: Homo sapiens, NCI-H23;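 note: cell viability assay measuring growth inhibition of NCI-H23 cells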
Description: SANGER: Inhibition of human NCI-H23 cell growth in a cell viability assay.

SMILES: O=C(NOCC1CC1)c1ccc(F)c(F)c1Nc1ccc(I)cc1Cl [CI-1040]
- IC50 [1]: 7.71 µM
- IC50 [2]: > 10 µM
- IC50 [3]: 7.71 µM
- IC50 [4]: 0.286 µM
- IC50 [5]: 4.26 µM
- IC50 [6]: > 10 µM
- IC50 [7]: > 10 µM
- IC50 [8]: > 10 µM
- IC50 [9]: > 10 µM
- IC50 [10]: 1.59 µM
- IC50 [11]: 4.69 µM
- IC50 [12]: > 10 µM
- IC50 [13]: 0.612 µM
- IC50 [14]: 9.45 µM
- IC50 [15]: 3.14 µM
- IC50 [16]: > 10 µM
- IC50 [17]: > 10 µM
- IC50 [18]: > 10 µM
- IC50 [19]: > 10 µM
- IC50 [20]: 0.431 µM
- IC50 [21]: 0.307 µM
- IC50 [22]: > 10 µM
- IC50 [23]: > 10 µM
- IC50 [24]: > 10 µM
- IC50 [25]: > 10 µM
- IC50 [26]: > 10 µM
- IC50 [27]: > 10 µM
- IC50 [28]: 9.84 µM
- IC50 [29]: > 10 µM
- IC50 [30]: > 10 µM
- IC50 [31]: > 10 µM
- IC50 [32]: > 10 µM
- IC50 [33]: > 10 µM
- IC50 [34]: > 10 µM
- IC50 [35]: 0.379 µM
- IC50 [36]: > 10 µM
- IC50 [37]: 0.257 µM
- IC50 [38]: > 10 µM
- IC50 [39]: 1.98 µM
- IC50 [40]: > 10 µM
- IC50 [41]: 3.33 µM
- IC50 [42]: 6.49 µM
- IC50 [43]: > 10 µM
- IC50 [44]: > 10 µM
- IC50 [45]: > 10 µM
- IC50 [46]: 0.263 µM
- IC50 [47]: > 10 µM
- IC50 [48]: 8.89 µM
- IC50 [49]: > 10 µM
- IC50 [50]: 1.22 µM
- IC50 [51]: > 10 µM
- IC50 [52]: > 10 µM
